Reference: US6558951B1, “Maturation of dendritic cells with immune response modifying compounds” (3M Innovative Properties Company, priority 1999, dated 2003)

Assays:
Assay type in all cases: cell-based, human
[1] = system: monocyte-derived dendritic cells (MO-DC); assay: MO-DC cytokine and chemokine secretion (ELISA or bioassay of culture supernatants); conditions: for IFN-α: bioassay; for IFN-α / IL-6 / IL-8 / IL-12 / MCP-1 / MIP-1α / TNF-α: mean ± SEM
Description: Generation of Monocyte-Derived Dendritic Cells (MO-DC). PBMC were isolated with Histopaque HybriMax-1077 density gradient (Sigma) from healthy volunteers after obtaining informed consent. CD14^+ cells were purified by positive selection using CD14^+ microbeads in conjunction with the MiniMACS system (Miltenyi Biotech, Auborn, Calif.) by following the manufacturer's instructions. Purity, as assessed by flow cytometry, was greater than 90%. […] Fresh medium containing GM-CSF and IL-4 was added every three days. MO-DC were routinely used between days 7 and 8 of culture. As a control, depleted lymphocytes were cultured in the same fashion. In Vitro MO-DC Stimulation. […] Cells were subsequently analyzed by flow cytometry for the expression of various cell surface markers, and the cell culture supernatants were analyzed for various cytokines and chemokines by ELISA. Cytokine Analysis. Cytokine levels were measured by ELISA. […] Human IL-6 kits were obtained from Biosource International (Camarillo, Calif.). Human IL-5, IL-8, MIP-1α, MCP-1 and RANTES were purchased from R&D Systems. All ELISA were run according to manufacturer's specifications. […] IFN-α and IFN-β specific antibodies were used to determine which type I IFN was present in the MO-DC supernatants. Results for all ELISAs are presented in pg/ml, whereas IFN results are presented in U/ml.

[2] = system: monocyte-derived dendritic cells (MO-DC); assay: MO-DC cell surface maturation marker expression by flow cytometry
Description: Generation of Monocyte-Derived Dendritic Cells (MO-DC). […] CD14^+ cells were purified by positive selection using CD14^+ microbeads in conjunction with the MiniMACS system (Miltenyi Biotech, Auborn, Calif.) by following the manufacturer's instructions. […] Fresh medium containing GM-CSF and IL-4 was added every three days. MO-DC were routinely used between days 7 and 8 of culture. As a control, depleted lymphocytes were cultured in the same fashion. In Vitro MO-DC Stimulation. […] Cells were subsequently analyzed by flow cytometry for the expression of various cell surface markers, and the cell culture supernatants were analyzed for various cytokines and chemokines by ELISA. Cell Surface and Intracellular Flow Cytometry. […] Cells (5-10^5) were incubated for 15 minutes incubation at 4° C. with purified IgD (Becton Dickinson) to block non-specific binding, and then the cells were stained for 30 minutes with the antibodies at 4° C. in PBS containing 10% FCS and 0.1% sodium azide. After washing in PBS, the cells were analyzed using a FACScan flow cytometer and Cell Quest software (Becton Dickinson).

allogeneic T cells = assay: Allogeneic lymphocyte activation (primary MLR) by treated MO-DC: T cell proliferation and cytokines
Description: Allogeneic Lymphocyte Activation. T-cells were isolated using T-Cell Purification Columns according to manufacturer's specifications (R&D Systems, Minneapolis, Minn). […] Dendritic cells were subsequently washed, resuspended in cRPMI and added at various concentrations (1-32×10^3 per well) to purified responder T-cells (1×10^5 per well) in 96-well flat-bottomed microtiter plates (BD Labware) in a total volume of 200 μl. […] Each well received 1 μCi [^3H]TdR and was harvested 18 hours later. Results are presented as mean CPM±SEM of triplicate wells. […] Cytokine Analysis. Cytokine levels were measured by ELISA. […] Human IL-6 kits were obtained from Biosource International (Camarillo, Calif.). Human IL-5, IL-8, MIP-1α, MCP-1 and RANTES were purchased from R&D Systems. All ELISA were run according to manufacturer's specifications. […] IFN-α and IFN-β specific antibodies were used to determine which type I IFN was present in the MO-DC supernatants. Results for all ELISAs are presented in pg/ml, whereas IFN results are presented in U/ml.

[3] = system: syngeneic CD3-enriched peripheral blood T cells; assay: Autologous T cell activation by treated MO-DC (anamnestic response to tetanus toxoid)
Description: Autologous T Cell Activation. Autologous T cells and R-848-treated MO-DC were prepared as described for allogeneic T cell stimulation. MO-DC were cultured with R-848 [2 μg/ml] and tetanus toxoid [10 μg/ml] for 24 hours. The MO-DC were washed and cultured at graded doses with PBMC-derived CD3^+ T cells for 7 days. Cell proliferation and analysis were determined as described. Supernatants were also collected; from the same cultures prior to pulsing with [^3H]TdR and analyzed for IFN-γ and IL-5.
Cytokine Analysis. Cytokine levels were measured by ELISA. Human TNF-α, IL-12 (p40/p70), IFNγ, IL-4 and IL-2 kits were purchased from Genzyme (Cambridge, Mass.). Human IL-6 kits were obtained from Biosource International (Camarillo, Calif.). Human IL-5, IL-8, MIP-1α, MCP-1 and RANTES were purchased from R&D Systems. All ELISA were run according to manufacturer's specifications. IFN levels were; measured by bioassay (40). IFN-α and IFN-β specific antibodies were used to determine which type I IFN was present in the MO-DC supernatants. Results for all ELISAs are presented in pg/ml, whereas IFN results are presented in U/ml.

[4] = 0.1 μg/ml, 24 hours, MO-DC supernatant
[5] = 0.4 μg/ml, 24 hours, MO-DC supernatant
[6] = 2.0 μg/ml, 24 hours, MO-DC supernatant
[7] = 8.0 μg/ml, 24 hours, MO-DC supernatant
[8] = treatment time 1 hr, 2 μg/ml R-848 or 1 μg/ml LPS
[9] = treatment time 6 hr, 2 μg/ml R-848 or 1 μg/ml LPS
[10] = treatment time 24 hr, 2 μg/ml R-848 or 1 μg/ml LPS
[11] = 0.1 μg/ml, 24 hours, vs vehicle
[12] = MO-DC treated with 2 and 8 μg/ml, MLR supernatants, 96 hours
[13] = MO-DC treated with 2 μg/ml and 10 μg/ml tetanus toxoid 24 hours, 7 days co-culture

`CCOCc1nc2c(N)nc3ccccc3c2n1CC(C)(C)O` [R-848, 4-amino-2-ethoxymethyl-α,α-dimethyl-1H-imidazo [4,5-c]quinoline-1-ethanol] showed an IFN-α [1, 4] of 8 ± 3 U/ml, an IL-6 [1, 4] of 20 ± 12 pg/mL and an IL-8 [1, 4] of 425 ± 132 pg/mL. For the same compound, the IL-12 [1, 4] was 70 ± 21 pg/mL, the MCP-1 [1, 4] was 3603 ± 2158 pg/mL and the MIP-1α [1, 4] was 57 ± 57 pg/mL. For the same compound, the TNF-α [1, 4] was 6 ± 3 pg/mL, the IFN-α [1, 5] was 8 ± 3 U/ml and the IL-6 [1, 5] was 399 ± 208 pg/mL. For the same compound, the IL-8 [1, 5] was 5125 ± 2430 pg/mL, the IL-12 [1, 5] was 106 ± 27 pg/mL and the MCP-1 [1, 5] was 4864 ± 2213 pg/mL. For the same compound, the MIP-1α [1, 5] was 511 ± 314 pg/mL, the TNF-α [1, 5] was 14 ± 4 pg/mL and the “stimulation time for maximal IL-12 secretion” value ([1]; 2 μg/ml R-848 or 1 μg/ml LPS) was “between six and twenty four hours”. For the same compound, the “stimulation time for maximal TNF-α secretion” value ([1]; 2 μg/ml R-848 or 1 μg/ml LPS) was “between one and six hours”, the IFN-α [1, 6] was 27 ± 7 U/ml and the IL-6 [1, 6] was 6729 ± 1888 pg/mL. It also gave an IL-8 [1, 6] of 50092 ± 10385 pg/mL, an IL-12 [1, 6] of 15984 ± 3860 pg/mL and an MCP-1 [1, 6] of 12941 ± 5802 pg/mL. It also gave an MIP-1α [1, 6] of 15412 ± 5244 pg/mL, a TNF-α [1, 6] of 1540 ± 371 pg/mL and an IFN-α [1, 7] of 41 ± 12 U/ml. It also gave an IL-6 [1, 7] of 9690 ± 1269 pg/mL, an IL-8 [1, 7] of 66988 ± 11863 pg/mL and an IL-12 [1, 7] of 19640 ± 3966 pg/mL. For the same compound, the MCP-1 [1, 7] was 16249 ± 7661 pg/mL, the MIP-1α [1, 7] was 25956 ± 5782 pg/mL and the TNF-α [1, 7] was 2208 ± 240 pg/mL. For the same compound, the “inhibition of induced IFN bioactivity by neutralizing IFN-α” value ([1]; MO-DC supernatants, IFN bioassay) was “greater than 95%”, the IL-12 [1, 8] was 65 ± 18 pg/mL and the TNF-α [1, 8] was 32 ± 10 pg/mL. For the same compound, the IL-12 [1, 9] was 4446 ± 2438 pg/mL, the TNF-α [1, 9] was 1053 ± 707 pg/mL and the IL-12 [1, 10] was 13153 ± 5484 pg/mL. For the same compound, the TNF-α [1, 10] was 335 ± 201 pg/mL, the “CD83 cell surface expression” value [2, 11] was “no increase” and the “CD86 cell surface expression” value [2, 11] was “no increase”. For the same compound, the “increase in CD40 expression over vehicle treated MO-DC” value ([2]; 2 μg/ml, 24 hours) was 2 fold, the “increase in CD80 expression over vehicle treated MO-DC” value ([2]; 2 μg/ml, 24 hours) was 2 fold and the “maximal average increase in CD80 expression (MFI)” value ([2]; 2 μg/ml, 24 hours) was 3- to 4 fold. The “maximal average increase in CD86 expression (MFI)” value ([2]; 2 μg/ml, 24 hours) was 3- to 4 fold, the “decrease in CD1a expression” value ([2]; 2 μg/ml, 24 hours, vs vehicle) was “not statistically significant” and the “increase in cell surface HLA-DR expression” value ([2]; 2 μg/ml, 24 hours, vs vehicle) was “not quantitatively significant”. The “culture time giving maximal DC maturation marker expression” value ([2]; 2 μg/ml, 24, 48, 72 and 96 hour stimulation examined) was 24 h, the CD86 expression ([2]; 0.4, 2 and 8 μg/ml, 24 hours, vs vehicle) was “Enhanced” and the “cell surface expression of CD83” value ([2]; 2 and 8 μg/ml, 24 hours, vs vehicle) was “Enhanced”. The CD83 expression ([2]; pulsed 6 hours, stained immediately, 2 μg/ml R-848 or 1 μg/ml LPS) was “significant increase”, the “CD40, CD80, CD86 and HLA-DR expression” value ([2]; pulsed 6 hours, stained immediately, 2 μg/ml R-848 or 1 μg/ml LPS, vs medium control) was “not statistically significant” and the “CD83 and CD40 expression” value ([2]; pulsed 6 hours, washed, re-cultured 18 hours, 2 μg/ml R-848 or 1 μg/ml LPS) was “significant increase”. For the same compound, the “expression of CD83, CD80, CD86, CD40 or HLA-DR” value ([2]; pulsed one hour with 2 μg/ml R-848 or 1 μg/ml LPS, then stained) was “did not show enhanced expression”, the “expression of CD83, CD80, CD86, CD40 or HLA-DR” value ([2]; pulsed one hour, washed, re-cultured 23 hours, 2 μg/ml R-848 or 1 μg/ml LPS) was “did not show enhanced expression” and the “allogeneic T cell proliferation vs untreated MO-DC” value (allogeneic T cells; MO-DC treated for 6 hours) was “significantly enhanced”. For the same compound, the “allogeneic T cell proliferation vs untreated MO-DC” value (allogeneic T cells; MO-DC treated for less than 6 hours) was “not significantly increased”, the “enhancement of IFN-γ production vs untreated MO-DC cultures” value (allogeneic T cells; [12]) was 2- to 3 fold and the “enhancement of IL-2 production vs untreated MO-DC cultures” value (allogeneic T cells; [12]) was 2- to 3 fold. For the same compound, the “enhancement of IL-5 production vs untreated MO-DC cultures” value (allogeneic T cells; [12]) was 2- to 3 fold, the “IL-2, IL-5 or IFN-γ production by T cells” value (allogeneic T cells; T cells cultured in the presence of compound, without added MO-DC) was “do not produce” and the “IFN-γ production vs MO-DC cultured only with tetanus toxoid antigen” value [3, 13] was 4- to 11 fold. For the same compound, the “increase of syngeneic T cell proliferation vs MO-DC not treated with R-848” value [3, 13] was 2to 3 fold and the “IL-5 in culture supernatants” value ([3]; MO-DC treated with 2 μg/ml and 10 μg/ml tetanus toxoid, autologous MO-DC/T cell system) was “not detected”.
